Measured values as given in patent publication US20090286813A1, “Thioxanthine Derivatives and Their Use as Inhibitors of MPO” (ASTRAZENECA AB, priority 2006, published 2009).

Target: T1, human MPO (Homo sapiens, UniProt P05164)
T1 sequence (P05164 49-745): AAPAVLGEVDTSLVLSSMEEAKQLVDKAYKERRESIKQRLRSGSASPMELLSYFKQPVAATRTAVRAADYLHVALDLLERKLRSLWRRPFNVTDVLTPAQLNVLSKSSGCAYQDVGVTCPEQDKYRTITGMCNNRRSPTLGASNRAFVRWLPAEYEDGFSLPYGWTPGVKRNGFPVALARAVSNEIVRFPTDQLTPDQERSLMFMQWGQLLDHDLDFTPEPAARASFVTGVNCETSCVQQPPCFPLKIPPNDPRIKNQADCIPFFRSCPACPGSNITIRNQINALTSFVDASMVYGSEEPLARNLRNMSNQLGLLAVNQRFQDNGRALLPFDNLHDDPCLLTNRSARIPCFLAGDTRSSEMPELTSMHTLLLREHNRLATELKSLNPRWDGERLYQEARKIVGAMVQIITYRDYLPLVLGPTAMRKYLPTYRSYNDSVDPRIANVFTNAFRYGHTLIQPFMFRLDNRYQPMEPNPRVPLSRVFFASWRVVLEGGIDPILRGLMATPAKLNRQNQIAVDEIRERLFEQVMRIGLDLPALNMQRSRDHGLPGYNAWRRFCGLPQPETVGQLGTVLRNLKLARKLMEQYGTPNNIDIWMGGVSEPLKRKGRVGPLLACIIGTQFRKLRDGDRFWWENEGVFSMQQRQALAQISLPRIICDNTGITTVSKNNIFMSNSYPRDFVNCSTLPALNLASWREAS
Experiment: MPO inhibition screen (TMB oxidation, absorbance)
Assay type: biochemical
Conditions: in the presence of tyrosine (final concentration 8 μM); human MPO 2.5 nM
Procedure: Methods for the determination of MPO inhibitory activity are disclosed in patent application WO 02/090575. The pharmacological activity of compounds according to the invention was tested in the following screen in which the compounds were either tested alone or in the presence of added tyrosine:
Assay buffer: 20 mM sodium/potassium phosphate buffer pH 6.5 containing 10 mM taurine and 100 mM NaCl.
Developing reagent: 2 mM 3,3′,5,5′-tetramethylbenzidine (TMB), 200 μM KI, 200 mM acetate buffer pH 5.4 with 20% DMF.
To 10 μl of diluted compounds in assay buffer, 40 μl of human MPO (final concentration 2.5 nM), with or without 20 μM tyrosine (final concentration, if present, 8 μM), was added and the mixture was incubated for 10 minutes at ambient temperature. Then 50 μl of H2O2 (final concentration 100 μM), or assay buffer alone as a control, were added. After incubation for 10 minutes at ambient temperature, the reaction was stopped by adding 10 μl 0.2 mg/ml of catalase (final concentration 18 μg/ml). The reaction mixture was left for an additional 5 minutes before 100 μl of TMB developing reagent was added. The amount of oxidised 3,3′,5,5′-tetramethylbenzidine formed was then measured after about 5 minutes using absorbance spectroscopy at about […]. IC50 values were then determined using standard procedures.

IC50 [µM]	Structure (SMILES)
2.75	O=c1[nH]c(=S)n(-c2cccc(OC(F)(F)F)c2)c2nc[nH]c12 [Example 3, 2-thioxo-3-[3-(trifluoromethoxy)phenyl]-1,2,3,7-tetrahydro-6H-purin-6-one]
4.47	O=c1[nH]c(=S)n(-c2cnc3ccccc3c2)c2nc[nH]c12 [Example 8, 3-quinolin-3-yl-2-thioxo-1,2,3,7-tetrahydro-6H-purin-6-one]
